Reference: patent US20240067931A1, “METHODS AND COMPOSITIONS FOR SMALL MOLECULE BASED PANCREATIC BETA CELL INDUCTION” (Trailhead Biosystems Inc., priority 2022, published 2024)
Ends that are not written are not given here.

Columns and labels:
Assay type in all cases: cell-based, human
FOXA2 [1] = assay: HD-DoE perturbation matrix on iPSC line CR01, optimization of FOXA2 activation (MODDE modelling)
Source text: FIG. 3 Optimization of FOXA2 from the iPSC-line CR01. A culture of the iPSC cell line Cr01 was exposed to an HD-DoE perturbation matrix composed of compounds regulating the BMP, retinoid, TGF-β and FGF pathways. Pathways previously shown to be involved in the differentiation of dorsal foregut endoderm. MODDE software was used to predict the optimal condition for maximizing FOXA2 activation. Predicted factor additives for this optimization and the relative expression under these conditions for all genes measured are shown.
(§1) To assay the efficacy of a potentially clinical grade iPSC line the NCRM1 cell line was chosen. An HD-DoE based optimization was used to validate the HNF1b and FOXA2 optimizers for this cell line. The HD-DOE method was applied with the intent to find conditions for induction of endoderm-expressed genes, directly from the pluripotent stem cell state. This example utilizes a method previously described by Bukys et al. (2020) Iscience 23:101346. The method employs computerized design geometries to simultaneously test multiple process inputs and offers mathematical modeling of a deep effector/response space. The method allows for finding combinatorial signaling inputs that control a complex process, such as dauring cell differentiation. It allows testing of multiple plausible critical process parameters, as such parameters impact output responses, such as gene expression. Because gene expression provides hallmark features of the phenotype of, for example, a human cell, the method can be applied to identify, and understand, which signaling pathways control cell fate.
(§2) To develop a cell culture recipe for each stage, the impact of agonists and antagonists of multiple signaling pathways (herein called effectors) on the expression of pre-selected genes was tested and modeled. The impact of each effector on gene expression level is defined by a parameter called factor contribution that is calculated for each effector during the modeling. These effectors are small molecules or proteins that are commonly used during stepwise differentiation of stem cells to specific fates. Choice of the effectors were based on current literature on differentiation of stem cells to endoderm progenitors.
(§3) In both optimizations, it was shown that BMP pathway inhibition was the most crucial component of the optimization with factor contribution factors of 31.26 and 31.11 for LDN193189 in both the optimization of HNF1b (FIG. 2) and FOXA2 (FIG. 3), respectively. While MEK pathway inhibition with PD0325901 was critical for both HNF1b and FOXA2 optimization (factor contributions of 15.01 and 29.01, respectively), FOXA2 activation was more dependent on MEK inhibition. The other two pathways that were determined to be crucial for controlling DFE activation were retinoid signaling and TGF-β pathway inhibition. These two pathways had differential effects on FOXA2 and HNF1b.

HNF1b = assay: HD-DoE perturbation matrix on iPSC line CR01, optimization of HNF1b activation (MODDE modelling)
Source text: FIG. 2 Optimization of HNF1B from the iPSC-line CR01. A culture of the iPSC cell line Cr01 was exposed to an HD-DoE perturbation matrix composed of compounds regulating the BMP, retinoid, TGF-β and FGF pathways. Pathways previously shown to be involved in the differentiation of dorsal foregut endoderm were utilized in this analysis. MODDE software was used to predict the optimal condition for maximizing HNF1b activation. Predicted factor additives for this optimization and the relative expression under these conditions for the genes measured are shown.
as §1, §2, §3

INS = assay: HD-DoE screening for optimal de novo beta cell induction (stage 3 cultures, 3 day perturbation), INS induction
Experimental: FIG. 18 HD-DoE screening for optimal de novo beta cell induction. Culture of the iPSC cell line CR01 were differentiated to a DFE state for 3 days. These cultures were then incubated in the presence of stage 2 media for an additional 3 days. These cultures were then incubated for an additional 5 days in the presence of GSI-XX and A8301 followed by a 3 day incubation in the presence of a perturbation matrix composed of the compounds indicated in the different panels. This was performed 3 separate times (once for each of the 3 panels). These HD-DoE experiments were then analyzed using MODDE software for maximal induction of insulin. The predicted results are shown.
FIG. 20 HD-DoE screening for optimal de novo beta cell induction. Cultures of the iPSC cell line CR01 were differentiated to a DFE state for 3 days. These cultures were then incubated in the presence of stage 2 media for an additional 3 days. These cultures were then incubated for an additional 5 days in the presence of GSI-XX and A8301 followed by a 3 day incubation in the presence of a perturbation matrix composed of the compounds indicated in the different panels. This was performed 4 separate times (once for each of the 4 panels). These HD-DoE experiments were then analyzed using MODDE software for the maximal induction of Insulin. The predicted results are shown.
(§4) FIGS. 22-25. Dynamic profiling of endocrine sub-type regulation. One of the HD-DoE experiments shown in Example 19 was analyzed using MODDE software and dynamic profiling of the endocrine products GCG, SST and INS are shown.
To define factors contributing to the activation of INS, a series of HD-DoE perturbations were performed using factors chosen to target different aspects of beta cell biology.
To define factors contributing to the activation of INS, a series HD-DoE perturbations were performed using factors chosen to target different aspects of beta cell biology.

FOXA2 [2] = assay: Immunohistochemical staining of iPSC (CR01) cultures after three days in additive combinations; conditions: added to RA and LDN, FIG. 9
Source text: FIG. 9 Achieving optimal FOXA2 expression. IPSC (CR01) cultures were exposed to media containing different combination of the additive retinoic acid, LDN193189, A8301 and/or PD0325 as indicated on the left side of the stainings. After three days, cultures were fixed and subjected to immunohistochemical staining for the protein antigens of FOXA2 and HNF1b.

[3] = system: iPSC derivatives (insulin secreting cells); assay: GSIS assay of bioreactor produced iPSC derivatives with cAMP agonists; conditions: FIG. 39
Experimental: FIG. 39. Functionality of bioreactor produced insulin secreting cells occurs through cAMP agonism.
A glucose stimulated insulin secretion assay was performed to evaluate the functional maturity of the de novo beta cells generated. Assay samples had growth media removed and were washed once with PBS to remove any trace of media that may have been previously conditioned with secreted C-PEP. All samples were then incubated in the presence of basal media at 37 degrees Celsius for 15 minutes. Basal media consisted of RPMI containing 3 mM glucose. This media was then changed to either media supplemented with 17.5 mM glucose or 30 mM KCl and incubated for an additional 15 minutes.
Fully mature beta cells respond to incretins such as GLP1 through a cAMP mediated response. The iPSC derivatives are non-responsive to both GLP1 or a commonly used agonist of the GLP1 pathway EX4. It was shown that the receptor for these incretins (GLPR1) had very low expression in the iPSC-derivatives (FIG. 40). The rate of insulin secretion was also directly linked to the rate of mitochondrial respiration, as fully mature beta cells lack LDHA expression, making them only capable of metabolizing glucose through mitochondria respiration.

PDX1 = assay: HD-DoE perturbation matrix on DFE culture, modelling for maximal PDX1 induction
Source text: FIG. 11 Modelling for maximal PDX1 induction. Cultures of the iPSC cell line Cr01 was differentiated to a DFE state and then subjected to an HD-DoE perturbation matrix composed of the compounds indicated in the figure. MODDE software was used to predict the optimal condition for maximizing PDX1 activation. Predicted factor additives for this optimization and the relative expression under these conditions for the genes measured are shown.
FIG. 12 Coefficient plots show main effectors for pancreatic progenitor generation from a DFE precursor. Coefficients for the HD-DoE design shown in Example 9 are shown for PDX1 and PTF1A. The co-expression of these two genes is indicative of a pancreatic field.
To determine the best way for inducing a pancreatic fate from a DFE progenitor, a subsequent HD-DoE analysis was performed. Exposing a DFE culture to a perturbation matrix composed of all previously identified effectors shown to have a positive effect on PDX1 activation was used to define optimal conditions for PDX1 induction.

INS (beta cell marker) = assay: HD-DoE on DFE culture, dynamic profiling of endocrine sub-type markers: INS; conditions: PDX1 optimizer, dynamic profiling FIG. 14
Source text: FIG. 14 Dynamic profiling exploring endocrine cell sub-types. IPSC cultures were differentiated to DFE cultures and then subjected a HD-DoE matrix as outlined in Example 10. MODDE software was used to display the dynamic profiles of GCG, INS and SST, which provide a representable characterization of the different pancreatic endocrine subtypes corresponding to alpha, beta, and delta cells, respectively.

[4] = system: GCG, SST, PDX1, PAX4, MAFA and NKX2.2; assay: HD-DoE stage 3 screening, heat map and dynamic profiling of endocrine and beta cell genes; conditions: heat maps FIG. 19 and FIG. 21
Source text: FIG. 19 Heat map showing descending factor contributions for the induction of INS. The three HD-DoE experiments shown in Example 17 were used for modeling the maximal expression of several other genes, including GCG, SST, PDX1, PAX4, MAFA and NKX2.2, which are indicative of endocrine cell types with a focus on pancreatic beta cells as indicated at the top of the heat map. The relative factor contributions for the activation of these different genes were then used to generate a secondary heat map representative of the gene induction logic and then ranked according to the compound's ability to induce INS. Dark blue colors indicate a high inductive capacity, while dark red colors indicative of a highly repressive capacity for activation of the genes are shown.
FIG. 21 Heat map showing descending factor contributions for the induction of INS. The four HD-DoE experiments shown in Example 19 were used for modeling the maximal expression of several other genes. These genes were GCG, SST, PDX1, PAX4, MAFA and NKX2.2. These genes are all indicative of endocrine cell types with a focus on the beta cell as indicated at the top of the heatmap. The relative factor contribution for the activation of these different genes were then used to generate a secondary heat map representative of these genes induction logic and then ranked order according to the compounds ability to induce INS. Dark blue indicates high inductive capacity, while dark red is indicative of a highly repressive effect for the activation of the genes shown.
as §4
To ascertain which factors could potentially favor the beta cell over other endocrine cell types, optimizers for markers of the other endocrine cell types and beta cell specific markers were compared. The relative factor contribution from the different optimizers were compared.
Optimizers for the main pancreatic endocrine hormones and beta cell-specific transcription factors were generated to compare their contribution factors for this series of HD-DoE. Compounds that could selectively favor the differentiation of the beta cell over that of the alpha and delta cells were identified in this manner.

de novo beta cells = assay: Immunohistochemical validation of de novo beta cells, day 16 culture (PDX1, C-peptide); conditions: added to stage 3 media, FIG. 26
Experimental: FIG. 26 Immunohistochemical validation of the generation of the de novo beta cells. Cultures of the iPSC cell line CR01 was differentiated to a DFE state for 3 days. These cultures were then incubated in the presence of stage 2 media for an additional 3 days. These cultures were then incubated for an additional 10 days in the presence of quercetin, GSI-XX and A8301. The cultures were then fixed using formalin and stained for antibodies that recognize the proteins PDX1 and CPEP.
C-peptide staining was performed to distinguish between de novo generation of beta cells and the possible absorption of insulin from the culture media.

c1ccc2c(-c3cnn4cc(-c5ccc(N6CCNCC6)cc5)cnc34)ccnc2c1 [LDN193189]
effect on FOXA2 expression (FOXA2 [1]; dynamic profiling, FIG. 5): crucial | factor contribution, optimization of FOXA2 (FOXA2 [1]; iPSC line CR01, HD-DoE, FIG. 3): 31.11 | effect on HNF1b expression (HNF1b; dynamic profiling, FIG. 5): crucial | factor contribution, optimization of HNF1b (HNF1b; iPSC line CR01, HD-DoE, FIG. 2): 31.26

Cc1cccc(-c2nn(C(=S)Nc3ccccc3)cc2-c2ccnc3ccccc23)n1 [A8301]
effect on INS induction (INS; heat map FIG. 21, dynamic profiling FIGS. 22-25): positive effect on INS induction, though with far less contribution | FOXA2 activation (immunohistochemical analysis) (FOXA2 [2]): increased FOXA2 activation over RA and LDN alone | correlation with FOXA2 activation (FOXA2 [1]; iPSC line CR01, HD-DoE, FIG. 3): positive correlation | factor contribution, optimization of FOXA2 (FOXA2 [1]; iPSC line CR01, HD-DoE, FIG. 3): 17.72 | correlation with HNF1b activation (HNF1b; iPSC line CR01, HD-DoE, FIG. 2): negative correlation | factor contribution, optimization of HNF1b (HNF1b; iPSC line CR01, HD-DoE, FIG. 2): 3.02

GLP1: incretin, cAMP agonist (HAEGTFTSDVSSYLEGQAAKEFIAWLVKGR; ends and bridges not checked; UniProt P01275 98-127, looked up)
increase in insulin secretion in GSIS assay [3]: did not occur

Cc1c(C)c(NCC(=O)N(C)C2CCN(Cc3ccc(C(N)=O)cc3)CC2)c(C)c(C)c1N [SUN11602]
factor contribution, PDX1 activation (PDX1; DFE culture, HD-DoE, FIG. 11): 4.7 | effect on INS activation (INS (beta cell marker)): slightly negative effect

O=C(NOC[C@H](O)CO)c1ccc(F)c(F)c1Nc1ccc(I)cc1F [PD0325901]
activation of the pancreatic field (PTF1A and PDX1), coefficient plots (PDX1; from DFE, FIG. 12): most critical to control | FOXA2 activation (immunohistochemical analysis) (FOXA2 [2]): increased FOXA2 activation over RA and LDN alone | factor contribution, optimization of FOXA2 (FOXA2 [1]; iPSC line CR01, HD-DoE, FIG. 3): 29.01 | factor contribution, optimization of HNF1b (HNF1b; iPSC line CR01, HD-DoE, FIG. 2): 15.01

O=c1c(O)c(-c2ccc(O)c(O)c2)oc2cc(O)cc(O)c12 [quercetin]
effect on beta cell specific transcription factors / all genes optimized [4]: beneficial for all genes optimized | contribution factor, activation of INS (INS; Example 17, three HD-DoE panels, FIG. 18): 15.6 | endocrine conversion, de novo beta cell generation (immunohistochemical analysis) (de novo beta cells): increased overall endocrine conversion
